Source: ChEMBL document CHEMBL4311960, “Two optimized antimicrobial peptides with therapeutic potential for clinical antibiotic-resistant Staphylococcus aureus” (Eur J Med Chem, 2019)

Experiments:
Erythrocyte = experiment: Hemolytic activity in mouse Erythrocyte assessed as HC10 incubated for 1 hr; type: ADME, cell-based
Streptococcus sanguinis = experiment: Antibacterial activity against Streptococcus sanguinis ATCC 10556 assessed as reduction in bacterial growth incubated for 24 hrs by serial dilution method; type: functional; details: ATCC 10556, 24 h
Streptococcus mutans = experiment: Antibacterial activity against Streptococcus mutans UA159 assessed as reduction in bacterial growth incubated for 24 hrs by serial dilution method; type: functional; details: UA159, 24 h
Staphylococcus aureus [1] = experiment: Antibacterial activity against methicillin-resistant Staphylococcus aureus ATCC 18466 assessed as reduction in bacterial growth incubated for 24 hrs by serial dilution method; type: functional; details: ATCC 18466, 24 h, read-out: MIC
[2] = Hemolytic activity in mouse Erythrocyte at 640 ug/ml incubated for 1 hr relative to control; type: ADME, cell-based; details: mouse erythrocytes, read-out: %max
Staphylococcus aureus [3] = experiment: Antibacterial activity against Staphylococcus aureus ATCC 25923 assessed as reduction in bacterial growth incubated for 24 hrs by serial dilution method; type: functional; details: ATCC 25923, 24 h
[4] = Cytotoxicity against human HEK293T cells assessed as cell viability at 640 ug/ml incubated for 48 hrs by MTT assay relative to control; type: cell-based, HEK-293T; details: read-out: Activity
[5] = Hemolytic activity in mouse Erythrocyte assessed as HC50 incubated for 1 hr; type: ADME, cell-based; details: mouse erythrocytes
Candida albicans = experiment: Antifungal activity against Candida albicans ATCC 5314 assessed as reduction in fungal growth incubated for 24 hrs by serial dilution method; type: functional; details: ATCC 5314, 24 h, read-out: MIC
[6] = Cytotoxicity against human HEK293T cells assessed as cell viability at 5 to 640 ug/ml incubated for 48 hrs by MTT assay relative to control; type: cell-based, HEK-293T; details: read-out: Activity

## H-WVRKVRRWWKKVKKVVKK-NH2
Erythrocyte
  HC10: 80.04 µg/mL
Streptococcus sanguinis; read-out: MIC
  MIC: < 64 µg/mL
Streptococcus mutans; read-out: MIC
  MIC: < 64 µg/mL
Staphylococcus aureus [1]
  MIC: < 64 µg/mL
[2]
  hemolysis at 1 h, 640 ug/ml: 25.5%
Staphylococcus aureus [3]; read-out: MIC
  MIC: < 64 µg/mL
[4]
  viability at 48 h, 640 ug/ml: 65.7%
[5]
  HC50 at 1 h: > 640 µg/mL
Candida albicans
  MIC: < 64 µg/mL

## H-WYERLINRKFKWLKGRLSKK-NH2
[6]
  viability at 48 h: 70 to 80%
Erythrocyte
  HC10: 178.82 µg/mL
Streptococcus sanguinis; read-out: MIC
  MIC: < 64 µg/mL
Streptococcus mutans
  MIC: > 64 µg/mL
Staphylococcus aureus [1]
  MIC: < 64 µg/mL
[2]
  hemolysis at 1 h, 640 ug/ml: 17.3%
Staphylococcus aureus [3]
  MIC: > 64 µg/mL
[5]
  HC50 at 1 h: > 640 µg/mL
Candida albicans
  MIC: < 64 µg/mL

## H-YEIKINRHFKTLKKNLKK-NH2
[6]
  viability at 48 h: 70 to 80%
Erythrocyte
  HC10: > 640 µg/mL
Streptococcus sanguinis
  MIC: > 64 µg/mL
Streptococcus mutans
  MIC: > 64 µg/mL
Staphylococcus aureus [1]
  MIC: < 64 µg/mL
[2]
  hemolysis at 1 h, 640 ug/ml: 7.94%
Staphylococcus aureus [3]; read-out: MIC
  MIC: < 64 µg/mL
[5]
  HC50 at 1 h: > 640 µg/mL
Candida albicans
  MIC: < 64 µg/mL

## H-YFRTIRRFFKKLFKTLKK-NH2
[6]
  viability at 48 h: 70 to 80%
Erythrocyte
  HC10: 640 µg/mL
Streptococcus sanguinis; read-out: MIC
  MIC: < 64 µg/mL
Streptococcus mutans; read-out: MIC
  MIC: < 64 µg/mL
Staphylococcus aureus [1]
  MIC: 64 µg/mL
[2]
  hemolysis at 1 h, 640 ug/ml: 10.3%
Staphylococcus aureus [3]; read-out: MIC
  MIC: 64 µg/mL
[5]
  HC50 at 1 h: > 640 µg/mL
Candida albicans
  MIC: 64 µg/mL

## H-YIRKINRHFKTLKKNLKK-NH2
[6]
  viability at 48 h: 70 to 80%
Erythrocyte
  HC10: > 640 µg/mL
Streptococcus sanguinis; read-out: MIC
  MIC: < 64 µg/mL
Streptococcus mutans
  MIC: > 64 µg/mL
Staphylococcus aureus [1]
  MIC: < 64 µg/mL
[2]
  hemolysis at 1 h, 640 ug/ml: 8.07%
Staphylococcus aureus [3]; read-out: MIC
  MIC: < 64 µg/mL
[5]
  HC50 at 1 h: > 640 µg/mL
Candida albicans
  MIC: < 64 µg/mL

## H-YIRKIRRFFKKLNKNLKK-NH2
[6]
  viability at 48 h: 70 to 80%
Erythrocyte
  HC10: > 640 µg/mL
Streptococcus sanguinis
  MIC: > 64 µg/mL
Streptococcus mutans; read-out: MIC
  MIC: < 64 µg/mL
Staphylococcus aureus [1]
  MIC: < 64 µg/mL
[2]
  hemolysis at 1 h, 640 ug/ml: 9.86%
Staphylococcus aureus [3]
  MIC: > 64 µg/mL
[5]
  HC50 at 1 h: > 640 µg/mL
Candida albicans
  MIC: < 64 µg/mL

## H-YIRKIRRFFKKRFKFRKK-NH2
[6]
  viability at 48 h: 70 to 80%
Erythrocyte
  HC10: > 640 µg/mL
Streptococcus sanguinis; read-out: MIC
  MIC: 64 µg/mL
Streptococcus mutans; read-out: MIC
  MIC: 16 µg/mL
Staphylococcus aureus [1]
  MIC: 32 µg/mL
[2]
  hemolysis at 1 h, 640 ug/ml: 8.21%
Staphylococcus aureus [3]; read-out: MIC
  MIC: 64 µg/mL
[5]
  HC50 at 1 h: > 640 µg/mL
Candida albicans
  MIC: 32 µg/mL

## H-YIRKIRRFFKTLNKNLKK-NH2
[6]
  viability at 48 h: 70 to 80%
Erythrocyte
  HC10: > 640 µg/mL
Streptococcus sanguinis; read-out: MIC
  MIC: < 64 µg/mL
Streptococcus mutans; read-out: MIC
  MIC: 32 µg/mL
Staphylococcus aureus [1]
  MIC: < 64 µg/mL
[2]
  hemolysis at 1 h, 640 ug/ml: 7.17%
Staphylococcus aureus [3]
  MIC: > 64 µg/mL
[5]
  HC50 at 1 h: > 640 µg/mL
Candida albicans
  MIC: < 64 µg/mL
